Earlier results in patent publication US20240091240A1, “TREATMENTS FOR BLOOD-BRAIN BARRIER DYSFUNCTION AND RECURRENT SEIZURES USING NOX/LOX/COX INHIBITORS” (University of Kentucky Research Foundation, priority 2022, published 2024).

Test system: subjects suffering from seizures
Settings: dosage of 5 mg/kg and 10 mg/kg

Question: For `CC1(C)Cc2c(-c3ccccc3)c(-c3ccc(Cl)cc3)c(CC(=O)O)n2C1` [licofelone], which brain capillary leakage is on record?
Answer: The brain capillary leakage was “reduce brain capillary leakage”.
